Test results: PubChem BioAssay AID292 (DTP/NCI, 2004)
Values joined by “and” are separate entries in the source; they are usually repeats but may differ in a detail not shown here. Equal entries are not always repeated. Toxic doses and inconclusive results are not listed. The calls were made as follows: active = survival T/C of 150% or more; inactive = T/C below 125% in these data.

Tested on: B6C3F1 mice, ip Sarcoma M5076, median survival T/C
Test: NCI In Vivo Anticancer Drug Screen. Data for tumor model Sarcoma M5076 (intraperitoneal) in B6C3F1 mice
Conditions: endpoint: median survival time, higher = longer survival
In short: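 Tumour cells were transplanted into mice, compound or vehicle was given, survival of both groups was followed, and the treated figure was expressed over the control figure.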

[1] = dose: 50.0 mg/kg/injection, schedule: Q04DX004 (ip), vehicle: suspension in saline
[2] = dose: 100.0 mg/kg/injection, schedule: Q04DX004 (ip), vehicle: suspension in saline
[3] = dose: 50.0 mg/kg/injection, schedule: Q04DX004 (ip), vehicle: Klucel (hydroxypropylcellulose) (HPC)

Measured: T/C

COc1nc2cc3c(cc2n2cccc12)oc1ccccc13
inactive: dose: 0.38 mg/kg/injection, schedule: Q04DX004 (ip), vehicle: saline with Tween-80 92 % of control | dose: 0.75 mg/kg/injection, schedule: Q04DX004 (ip), vehicle: saline with Tween-80 89 % of control

O=C(Oc1ccccc1)c1cc(O)c(O)c(O)c1
inactive: dose: 25.0 mg/kg/injection, schedule: Q04DX004 (ip), vehicle: saline with Tween-80 97 % of control | dose: 50.0 mg/kg/injection, schedule: Q04DX004 (ip), vehicle: saline with Tween-80 93 % of control | dose: 100.0 mg/kg/injection, schedule: Q04DX004 (ip), vehicle: saline with Tween-80 92 % of control | dose: 200.0 mg/kg/injection, schedule: Q04DX004 (ip), vehicle: saline with Tween-80 88 % of control

CC[C@](C)(O)C(=O)O[C@H]1C(=O)O[C@@H]2C[C@H]3C(C)=CC(=O)[C@@H](O)[C@]3(C)[C@H]3[C@@]4(O)OC[C@]32[C@@H]1[C@@H](C)[C@H]4O
inactive: dose: 0.03 mg/kg/injection, schedule: Q04DX004 (ip), vehicle: saline 102 % of control | dose: 0.06 mg/kg/injection, schedule: Q04DX004 (ip), vehicle: saline 117 % of control | dose: 0.25 mg/kg/injection, schedule: Q04DX004 (ip), vehicle: saline 100 % of control

CN(C)[C@@H]1C(=O)C(C(N)=O)=C(O)[C@@]2(O)C(=O)C3=C(O)c4c(O)ccc(Cl)c4[C@@](C)(O)[C@H]3C[C@@H]12
inactive: dose: 25.0 mg/kg/injection, schedule: Q04DX004 (ip), vehicle: suspension in saline 86 % of control | [1] 96 % of control | [2] 91 % of control

C[C@@]12C(=O)OC(=O)[C@]1(C)[C@H]1CC[C@@H]2O1
inactive: dose: 125.0 micrograms/kg/injection, schedule: Q01DX009 (ip), vehicle: acetone 100 % of control | dose: 250.0 micrograms/kg/injection, schedule: Q01DX009 (ip), vehicle: acetone 115 % of control | dose: 500.0 micrograms/kg/injection, schedule: Q01DX009 (ip), vehicle: acetone 116 % of control | dose: 1000.0 micrograms/kg/injection, schedule: Q01DX009 (ip), vehicle: acetone 100 % of control

COc1ccc(NC(=O)C2C(=O)C(=O)N(c3ccc(OC)cc3OC)C2=O)c(OC)c1 (stereo not given)
inactive: [3] 100 % of control | dose: 100.0 mg/kg/injection, schedule: Q04DX004 (ip), vehicle: Klucel (hydroxypropylcellulose) (HPC) 100 % of control | dose: 200.0 mg/kg/injection, schedule: Q04DX004 (ip), vehicle: Klucel (hydroxypropylcellulose) (HPC) 97 % of control

O=c1[nH]cnc2c1nnn2C1OC(CO)C(O)C1O (stereo not given)
inactive: dose: 50.0 mg/kg/injection, schedule: Q04DX004 (ip), vehicle: saline 105 % of control | [1] 97 % of control | dose: 100.0 mg/kg/injection, schedule: Q04DX004 (ip), vehicle: saline 93 % of control | [2] 94 % of control | dose: 200.0 mg/kg/injection, schedule: Q04DX004 (ip), vehicle: saline 112 % of control | dose: 200.0 mg/kg/injection, schedule: Q04DX004 (ip), vehicle: suspension in saline 98 % of control | dose: 400.0 mg/kg/injection, schedule: Q04DX004 (ip), vehicle: saline 101 % of control | dose: 400.0 mg/kg/injection, schedule: Q04DX004 (ip), vehicle: suspension in saline 96 % of control | dose: 800.0 mg/kg/injection, schedule: Q04DX004 (ip), vehicle: saline 103 % of control | dose: 800.0 mg/kg/injection, schedule: Q04DX004 (ip), vehicle: suspension in saline 96 % of control

O=S(CCCl)CCCl
inactive: dose: 6.25 mg/kg/injection, schedule: Q04DX004 (ip), vehicle: Klucel (hydroxypropylcellulose) (HPC) 102 % of control | dose: 12.5 mg/kg/injection, schedule: Q04DX004 (ip), vehicle: Klucel (hydroxypropylcellulose) (HPC) 98 % of control | dose: 25.0 mg/kg/injection, schedule: Q04DX004 (ip), vehicle: Klucel (hydroxypropylcellulose) (HPC) 98 % of control | [3] 106 % of control

CNc1ncn(-c2c(C)cccc2C)c(=O)n1
inactive: dose: 4.69 mg/kg/injection, schedule: Q04DX004 (ip), vehicle: saline with Tween-80 98 % of control | dose: 9.38 mg/kg/injection, schedule: Q04DX004 (ip), vehicle: saline with Tween-80 109 % of control | dose: 18.75 mg/kg/injection, schedule: Q04DX004 (ip), vehicle: saline with Tween-80 110 % of control | dose: 37.5 mg/kg/injection, schedule: Q04DX004 (ip), vehicle: saline with Tween-80 109 % of control | dose: 75.0 mg/kg/injection, schedule: Q04DX004 (ip), vehicle: saline with Tween-80 100 % of control and 105 % of control and 115 % of control | dose: 150.0 mg/kg/injection, schedule: Q04DX004 (ip), vehicle: saline with Tween-80 99 % of control | dose: 300.0 mg/kg/injection, schedule: Q04DX004 (ip), vehicle: saline with Tween-80 100 % of control | dose: 600.0 mg/kg/injection, schedule: Q04DX004 (ip), vehicle: saline with Tween-80 99 % of control

CC(=O)N1CCCN(C)/C1=N/[N+](=O)[O-]
inactive: dose: 37.5 mg/kg/injection, schedule: Q04DX004 (ip), vehicle: saline 100 % of control | dose: 75.0 mg/kg/injection, schedule: Q04DX004 (ip), vehicle: saline 104 % of control | dose: 150.0 mg/kg/injection, schedule: Q04DX004 (ip), vehicle: saline 104 % of control | dose: 300.0 mg/kg/injection, schedule: Q04DX004 (ip), vehicle: saline 100 % of control
